Measured values reported in US9434711B2 (Janssen Pharmaceutica, NV, priority 2007, dated 2016).

Target: canine TRPM8 (Canis lupus familiaris, UniProt Q1A7N1)
Experiment: In Vitro Canine TRPM8 Functional Assay (Ca2+ fluorescence, icilin activation)
Type: cell-based
Conditions: for IC50: HEK293 cells stably expressing canine TRPM8, icilin activation, eight-point dose-response, read-out: IC50; for inhibition at 0.2 µM / % Inh @ 0.2 (μM): compound at 0.2 μM, canine TRPM8, icilin activation; for inhibition at 0.2 µM: read-out: % Inh @ 0.2
Method in brief: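 HEK293 cells stably expressing canine TRPM8 were loaded with Calcium 3 dye (35 min at 37 °C, then 25 min at room temperature). Compound was added and Ca2+ fluorescence was read for 5 min before icilin at a concentration giving about 80% maximal response. EC50/IC50 came from eight-point dose-response curves, quadruplicate wells.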

Sequence of canine TRPM8 (Q1A7N1 1-1104): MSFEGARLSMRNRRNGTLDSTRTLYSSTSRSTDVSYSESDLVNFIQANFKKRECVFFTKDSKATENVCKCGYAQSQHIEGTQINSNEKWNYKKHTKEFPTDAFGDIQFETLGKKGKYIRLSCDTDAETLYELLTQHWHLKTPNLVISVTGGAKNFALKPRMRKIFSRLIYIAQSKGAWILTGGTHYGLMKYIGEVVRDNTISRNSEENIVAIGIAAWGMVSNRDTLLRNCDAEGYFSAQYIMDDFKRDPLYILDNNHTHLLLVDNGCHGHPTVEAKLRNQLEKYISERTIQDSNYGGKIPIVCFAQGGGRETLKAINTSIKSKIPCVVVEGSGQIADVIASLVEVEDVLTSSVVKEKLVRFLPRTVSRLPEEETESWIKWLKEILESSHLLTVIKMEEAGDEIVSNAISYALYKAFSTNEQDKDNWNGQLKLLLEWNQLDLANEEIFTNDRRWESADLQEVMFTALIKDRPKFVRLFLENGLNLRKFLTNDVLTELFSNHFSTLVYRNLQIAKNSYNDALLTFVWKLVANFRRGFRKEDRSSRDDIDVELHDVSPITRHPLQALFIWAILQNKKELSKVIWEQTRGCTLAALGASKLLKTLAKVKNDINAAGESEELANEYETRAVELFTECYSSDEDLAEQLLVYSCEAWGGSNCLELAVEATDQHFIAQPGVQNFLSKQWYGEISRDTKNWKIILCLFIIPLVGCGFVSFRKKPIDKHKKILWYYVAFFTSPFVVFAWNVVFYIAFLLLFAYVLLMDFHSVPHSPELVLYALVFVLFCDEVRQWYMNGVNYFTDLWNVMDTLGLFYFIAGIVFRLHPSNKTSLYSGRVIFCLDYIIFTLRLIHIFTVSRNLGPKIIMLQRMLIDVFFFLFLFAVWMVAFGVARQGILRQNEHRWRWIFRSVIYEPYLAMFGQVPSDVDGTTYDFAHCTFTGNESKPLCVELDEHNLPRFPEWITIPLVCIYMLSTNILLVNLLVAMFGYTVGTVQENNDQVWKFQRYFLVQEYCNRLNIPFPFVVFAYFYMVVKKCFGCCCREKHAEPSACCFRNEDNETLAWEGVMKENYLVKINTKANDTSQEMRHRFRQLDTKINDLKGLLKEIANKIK

SMILES | IC50 [nM] | inhibition at 0.2 µM [%] | % Inh @ 0.2 (μM) [%]
Cc1c(N(Cc2ccc(F)c(C(F)(F)F)c2)S(=O)(=O)c2ccc(C(=O)O)cc2F)sc2ccccc12 [Compound 592, N-(3-Methyl-benzo[b]thiophen-2-yl)-N-(4-fluoro-3-trifluoromethyl-benzyl)-2-fluoro-4-carboxy-benzenesulfonamide] | 1.8 | 101 | 
CCCCN(c1sc2ccccc2c1C)S(=O)(=O)c1ccc(C(=O)O)cc1F [Compound 593, N-(3-Methyl-benzo[b]thiophen-2-yl)-N-(butyl)-2-fluoro-4-carboxy-benzenesulfonamide] | 7.6 | 101 | 
O=S(=O)(c1ccc(-c2nnn[nH]2)cc1)N(CCC1CC1)c1sc2ccccc2c1Br [Compound 594, N-(3-Bromo-benzo[b]thiophen-2-yl)-N-(2-cyclopropyl-ethyl)-4-(1H-tetrazol-5-yl)-benzenesulfonamide] |  | 101 | 
O=S(=O)(c1ccc(-c2nnn[nH]2)cc1)N(CCC(F)(F)F)c1sc2ccccc2c1Br [Compound 595, N-(3-Bromo-benzo[b]thiophen-2-yl)-N-(3,3,3-trifluoro-propyl)-4-(1H-tetrazol-5-yl)-benzenesulfonamide] |  | 101 | 
O=S1NC(c2ccc(S(=O)(=O)N(CCC(F)(F)F)c3cc4ccccc4s3)cc2)=NO1 (centres unmarked) [Compound 596, N-(Benzo[b]thiophen-2-yl)-N-(3,3,3-trifluoro-propyl)-4-(3H-[1,2,3,5]oxathiadiazole-2-oxide)-benzenesulfonamide] |  |  | 17
Cc1c(N(CCC(F)(F)F)S(=O)(=O)c2ccc(C3=NOS(=O)N3)cc2)sc2ccccc12 (centres unmarked) [Compound 598, N-(3-Methyl-benzo[b]thiophen-2-yl)-N-(3,3,3-trifluoro-propyl)-4-(3H-[1,2,3,5]oxathiadiazole-2-oxide)-benzenesulfonamide] | 30.7 |  | 101
Cc1c(N(CCC(F)(F)F)S(=O)(=O)c2ccc(-c3noc(=O)[nH]3)cc2)sc2ccccc12 [Compound 599, N-(3-Methyl-benzo[b]thiophen-2-yl)-N-(3,3,3-trifluoro-propyl)-4-(5-oxo-4,5-dihydro-[1,2,4]oxadiazol-3-yl)-benzenesulfonamide] | 16.1 | 101 | 
COC(=O)CCS(=O)(=O)N(CCC1CC1)c1sc2ccccc2c1C [Compound 600, N-(2-Cyclopropyl-ethyl)-N-(3-methyl-benzo[b]thiophen-2-yl)-2-carbomethoxy-ethanesulfonamide] | 8.9 | 101 | 
COC(=O)CCS(=O)(=O)N(CCC(F)(F)F)c1sc2ccccc2c1C [Compound 601, N-(3-Methyl-benzo[b]thiophen-2-yl)-N-(3,3,3-trifluoro-propyl)-2-carbomethoxy-ethanesulfonamide] |  | 100 | 
COC(=O)CCS(=O)(=O)N(CCCC(F)(F)F)c1sc2ccccc2c1C [Compound 602, N-(3-Methyl-benzo[b]thiophen-2-yl)-N-(4,4,4-trifluoro-butyl)-2-carbomethoxy-ethanesulfonamide] | 22.1 | 101 | 
COC(=O)CCS(=O)(=O)N(CCCCC(F)(F)F)c1sc2ccccc2c1C [Compound 603, N-(3-Methyl-benzo[b]thiophen-2-yl)-N-(5,5,5-trifluoro-pentyl)-2-carbomethoxy-ethanesulfonamide] | 10.3 | 101 | 
Cc1c(N(CCC(F)(F)F)S(=O)(=O)CCC(=O)O)sc2ccccc12 [Compound 604, N-(3-Methyl-benzo[b]thiophen-2-yl)-N-(3,3,3-trifluoro-propyl)-2-carboxy-ethanesulfonamide] |  | 13 | 
Cc1c(N(CCCC(F)(F)F)S(=O)(=O)CCC(=O)O)sc2ccccc12 [Compound 605, N-(3-Methyl-benzo[b]thiophen-2-yl)-N-(4,4,4-trifluoro-butyl)-2-carboxy-ethanesulfonamide] |  | 18 | 
Cc1c(N(CCCCC(F)(F)F)S(=O)(=O)CCC(=O)O)sc2ccccc12 [Compound 606, N-(3-Methyl-benzo[b]thiophen-2-yl)-N-(5,5,5-trifluoro-pentyl)-2-carboxy-ethanesulfonamide] | 90.5 | 75 | 
O=S1NC(c2ccc(S(=O)(=O)N(CCC(F)(F)F)c3sc4ccccc4c3Br)cc2)=NO1 (centres unmarked) [Compound 607, N-(3-Bromo-benzo[b]thiophen-2-yl)-N-(3,3,3-trifluoro-propyl)-4-(3H-[1,2,3,5]oxathiadiazole-2-oxide)-benzenesulfonamide] | 36.8 |  | 101
O=c1[nH]c(-c2ccc(S(=O)(=O)N(CCC(F)(F)F)c3sc4ccccc4c3Br)cc2)no1 [Compound 608, N-(3-Bromo-benzo[b]thiophen-2-yl)-N-(3,3,3-trifluoro-propyl)-4-(5-oxo-4,5-dihydro-[1,2,4]oxadiazol-3-yl)-benzenesulfonamide] |  | 101 | 

SMILES | IC50 [nM] | inhibition at 0.2 µM [%] | % Inh @ 0.2 (μM) [%]
O=c1[nH]c(-c2ccc(S(=O)(=O)N(CCC(F)(F)F)c3sc4ccccc4c3Cl)cc2)no1 [Compound 609, N-(3-Chloro-benzo[b]thiophen-2-yl)-N-(3,3,3-trifluoro-propyl)-4-(5-oxo-4,5-dihydro-[1,2,4]oxadiazol-3-yl)-benzenesulfonamide] | 53.7 | 99 | 
O=S1NC(c2ccc(S(=O)(=O)N(CCC3CC3)c3cc4ccccc4s3)cc2)=NO1 (centres unmarked) [Compound 610, N-(Benzo[b]thiophen-2-yl)-N-(cyclopropyl-ethyl)-4-(3H-[1,2,3,5]oxathiadiazole-2-oxide)-benzenesulfonamide] |  |  | 55
Cc1c(N(CCC2CC2)S(=O)(=O)c2ccc(C3=NOS(=O)N3)cc2)sc2ccccc12 (centres unmarked) [Compound 611, N-(3-Methyl-benzo[b]thiophen-2-yl)-N-(cyclopropyl-ethyl)-4-(3H-[1,2,3,5]oxathiadiazole-2-oxide)-benzenesulfonamide] | 14.6 |  | 101
O=c1[nH]c(-c2ccc(S(=O)(=O)N(CCC3CC3)c3cc4ccccc4s3)cc2)no1 [Compound 612, N-(Benzo[b]thiophen-2-yl)-N-(cyclopropyl-ethyl)-4-(5-oxo-4,5-dihydro-[1,2,4]oxadiazol-3-yl)-benzenesulfonamide] | 53.7 | 97 | 
Cc1c(N(CCC2CC2)S(=O)(=O)c2ccc(-c3noc(=O)[nH]3)cc2)sc2ccccc12 [Compound 613, N-(3-Methyl-benzo[b]thiophen-2-yl)-N-(cyclopropyl-ethyl)-4-(5-oxo-4,5-dihydro-[1,2,4]oxadiazol-3-yl)-benzenesulfonamide] | 6.6 | 101 | 
Cc1c(N(CCC2CC2)S(=O)(=O)c2ccccc2)sc2ccccc12 [Compound 614, N-(2-Cyclopropyl-ethyl)-N-(3-methyl-benzo[b]thiophen-2-yl)-benzenesulfonamide] | 7.4 | 101 | 
Cc1c(N(CCC(F)(F)F)S(=O)(=O)c2ccccc2)sc2ccccc12 [Compound 615, N-(3-Methyl-benzo[b]thiophen-2-yl)-N-(3,3,3-trifluoro-propyl)-benzenesulfonamide] | 7.3 | 101 | 
Cc1c(N(CCCC(F)(F)F)S(=O)(=O)c2ccccc2)sc2ccccc12 [Compound 616, N-(3-Methyl-benzo[b]thiophen-2-yl)-N-(4,4,4-trifluoro-butyl)-benzenesulfonamide] | 12.8 | 101 | 
Cc1c(N(CCCCC(F)(F)F)S(=O)(=O)c2ccccc2)sc2ccccc12 [Compound 617, N-(3-Methyl-benzo[b]thiophen-2-yl)-N-(5,5,5-trifluoro-pentyl)-benzenesulfonamide] | 7.4 | 101 | 
CC1=C(N(CCC2CC2)S(=O)(=O)c2ccccc2)S(=O)(=O)c2ccccc21 [Compound 618, N-(2-Cyclopropyl-ethyl)-N-(3-methyl-1,1-dioxo-benzo[b]thiophen-2-yl)-benzenesulfonamide] | 10.4 | 101 | 
CC1=C(N(CCC(F)(F)F)S(=O)(=O)c2ccccc2)S(=O)(=O)c2ccccc21 [Compound 619, N-(3-Methyl-1,1-dioxo-benzo[b]thiophen-2-yl)-N-(3,3,3-trifluoro-propyl)-benzenesulfonamide] | 39.8 | 101 | 
CC1=C(N(CCCC(F)(F)F)S(=O)(=O)c2ccccc2)S(=O)(=O)c2ccccc21 [Compound 620, N-(3-Methyl-1,1-dioxo-benzo[b]thiophen-2-yl)-N-(4,4,4-trifluoro-butyl)-benzenesulfonamide] | 23.4 | 101 | 
CC1=C(N(CCCCC(F)(F)F)S(=O)(=O)c2ccccc2)S(=O)(=O)c2ccccc21 [Compound 621, N-(3-Methyl-1,1-dioxo-benzo[b]thiophen-2-yl)-N-(5,5,5-trifluoro-pentyl)-benzenesulfonamide] | 11 | 101 | 
CC1=C(N(Cc2ccc(F)c(C(F)(F)F)c2)S(=O)(=O)c2ccccc2)S(=O)(=O)c2ccccc21 [Compound 622, N-(4-Fluoro-3-trifluoromethyl-benzyl)-N-(3-methyl-1,1-dioxo-benzo[b]thiophen-2-yl)-benzenesulfonamide] | 31.3 | 89 | 
Cc1c(N(Cc2ccc(F)c(C(F)(F)F)c2)S(=O)(=O)c2ccc(C(=O)NS(C)(=O)=O)cc2)sc2ccccc12 [Compound 623, N-(3-Methyl-benzo[b]thiophen-2-yl)-N-(4-fluoro-3-trifluoromethyl-benzyl)-4-methanesulfonylaminocarbonyl-benzenesulfonamide] | 7 | 101 | 
O=S1NC(c2ccc(S(=O)(=O)N(CCC3CC3)c3sc4ccccc4c3Br)cc2)=NO1 (centres unmarked) [Compound 624, N-(3-Bromo-benzo[b]thiophen-2-yl)-N-(cyclopropyl-ethyl)-4-(3H-[1,2,3,5]oxathiadiazole-2-oxide)-benzenesulfonamide] | 13.4 |  | 103
